PubChem BioAssay (NCI)
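Cells were grown in 96-well plates and exposed to each compound for 48 hours at five concentrations; endpoints were interpolated linearly between bracketing concentrations, or set to the highest concentration if not reached. GI50: concentration for 50% inhibition of growth. At the TGI there is no net growth.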

Key:
Test in all cases: NCI anticancer screen, dose series, 48 h
786-0 renal = system: 786-0 renal
A549 NSCLC = system: A549 NSCLC
ACHN renal = system: ACHN renal
BT-549 breast = system: BT-549 breast
CAKI-1 renal = system: CAKI-1 renal
COLO 205 colon = system: COLO 205 colon
EKVX NSCLC = system: EKVX NSCLC
HCT-116 colon = system: HCT-116 colon
HCT-15 colon = system: HCT-15 colon
HL-60(TB) leukemia = system: HL-60(TB) leukemia
HOP-62 NSCLC = system: HOP-62 NSCLC
HOP-92 NSCLC = system: HOP-92 NSCLC
HT29 colon = system: HT29 colon
IGROV1 ovarian = system: IGROV1 ovarian
K-562 leukemia = system: K-562 leukemia
KM12 colon = system: KM12 colon
LOX IMVI melanoma = system: LOX IMVI melanoma
M14 melanoma = system: M14 melanoma
MALME-3M melanoma = system: MALME-3M melanoma
MCF7 breast = system: MCF7 breast
MDA-MB-231 breast = system: MDA-MB-231 breast
MDA-MB-435 = system: MDA-MB-435
MOLT-4 leukemia = system: MOLT-4 leukemia
NCI-H23 lung = system: NCI-H23 lung
NCI-H460 lung = system: NCI-H460 lung
NCI-H522 lung = system: NCI-H522 lung
NCI/ADR-RES ovarian = system: NCI/ADR-RES ovarian
OVCAR-3 ovarian = system: OVCAR-3 ovarian
OVCAR-4 ovarian = system: OVCAR-4 ovarian
OVCAR-8 ovarian = system: OVCAR-8 ovarian
PC-3 prostate = system: PC-3 prostate
RPMI-8226 leukemia = system: RPMI-8226 leukemia
RXF 393 renal = system: RXF 393 renal
SF-268 CNS = system: SF-268 CNS
SF-295 CNS = system: SF-295 CNS
SK-MEL-2 melanoma = system: SK-MEL-2 melanoma
SK-MEL-28 melanoma = system: SK-MEL-28 melanoma
SK-MEL-5 melanoma = system: SK-MEL-5 melanoma
SK-OV-3 ovarian = system: SK-OV-3 ovarian
SN12C renal = system: SN12C renal
SNB-19 CNS = system: SNB-19 CNS
SNB-75 CNS = system: SNB-75 CNS
SR leukemia = system: SR leukemia
SW-620 colon = system: SW-620 colon
T-47D breast = system: T-47D breast
TK-10 renal = system: TK-10 renal
U251 CNS = system: U251 CNS
UACC-257 melanoma = system: UACC-257 melanoma
UACC-62 melanoma = system: UACC-62 melanoma
UO-31 renal = system: UO-31 renal

Which results are given for `CN(C)CCCNC(=O)c1ccc2c(c1)oc1cc3ccccc3c(=O)n12`?
GI50 (786-0 renal): > 50 µM; TGI (786-0 renal): > 50 µM; GI50 (A549 NSCLC): 5.98 µM; TGI (A549 NSCLC): 16 µM; GI50 (ACHN renal): 8.33 µM; TGI (ACHN renal): 16.1 µM; GI50 (BT-549 breast): 12.7 µM; TGI (BT-549 breast): 26.5 µM; GI50 (CAKI-1 renal): 11 µM; TGI (CAKI-1 renal): 28.6 µM; GI50 (COLO 205 colon): 14.6 µM; TGI (COLO 205 colon): 32.5 µM; GI50 (EKVX NSCLC): 17.6 µM; TGI (EKVX NSCLC): 45.7 µM; GI50 (HCT-116 colon): 19.3 µM; TGI (HCT-116 colon): > 50 µM; GI50 (HCT-15 colon): 12.3 µM; TGI (HCT-15 colon): > 50 µM; GI50 (HL-60(TB) leukemia): 11 µM; TGI (HL-60(TB) leukemia): 30.8 µM; GI50 (HOP-62 NSCLC): > 50 µM; TGI (HOP-62 NSCLC): > 50 µM; GI50 (HOP-92 NSCLC): > 50 µM; TGI (HOP-92 NSCLC): > 50 µM; GI50 (HT29 colon): 12.7 µM; TGI (HT29 colon): 27.7 µM; GI50 (IGROV1 ovarian): 9.94 µM; TGI (IGROV1 ovarian): 43.5 µM; GI50 (K-562 leukemia): 27.2 µM; TGI (K-562 leukemia): > 50 µM; GI50 (KM12 colon): 19.1 µM; TGI (KM12 colon): > 50 µM; GI50 (LOX IMVI melanoma): 9.4 µM; TGI (LOX IMVI melanoma): 17.9 µM; GI50 (M14 melanoma): 14.3 µM; TGI (M14 melanoma): 35.5 µM; GI50 (MALME-3M melanoma): > 50 µM; TGI (MALME-3M melanoma): > 50 µM; GI50 (MCF7 breast): 15 µM; TGI (MCF7 breast): 39.2 µM; GI50 (MDA-MB-231 breast): 16.9 µM; TGI (MDA-MB-231 breast): > 50 µM; GI50 (MDA-MB-435): 19.1 µM; TGI (MDA-MB-435): > 50 µM; GI50 (MOLT-4 leukemia): 18.4 µM; TGI (MOLT-4 leukemia): > 50 µM; GI50 (NCI-H23 lung): 35.4 µM; TGI (NCI-H23 lung): > 50 µM; GI50 (NCI-H460 lung): 9.96 µM; TGI (NCI-H460 lung): 39.9 µM; GI50 (NCI-H522 lung): 9.33 µM; TGI (NCI-H522 lung): 21.8 µM; GI50 (NCI/ADR-RES ovarian): > 50 µM; TGI (NCI/ADR-RES ovarian): > 50 µM; GI50 (OVCAR-3 ovarian): 9.24 µM; TGI (OVCAR-3 ovarian): 23.9 µM; GI50 (OVCAR-4 ovarian): 40.9 µM; TGI (OVCAR-4 ovarian): > 50 µM; GI50 (OVCAR-8 ovarian): 10.1 µM; TGI (OVCAR-8 ovarian): 24.9 µM; GI50 (PC-3 prostate): 31.7 µM; TGI (PC-3 prostate): > 50 µM; GI50 (RPMI-8226 leukemia): 17.1 µM; TGI (RPMI-8226 leukemia): > 50 µM; GI50 (RXF 393 renal): 6.85 µM; TGI (RXF 393 renal): 18.2 µM; GI50 (SF-268 CNS): 16.1 µM; TGI (SF-268 CNS): 40 µM; GI50 (SF-295 CNS): 19 µM; TGI (SF-295 CNS): 40.5 µM; GI50 (SK-MEL-2 melanoma): 9.3 µM; TGI (SK-MEL-2 melanoma): 32.6 µM; GI50 (SK-MEL-28 melanoma): 14.5 µM; TGI (SK-MEL-28 melanoma): 29.3 µM; GI50 (SK-MEL-5 melanoma): 6.1 µM; TGI (SK-MEL-5 melanoma): 13 µM; GI50 (SK-OV-3 ovarian): 38.7 µM; TGI (SK-OV-3 ovarian): > 50 µM; GI50 (SN12C renal): 15.4 µM; TGI (SN12C renal): 43.4 µM; GI50 (SNB-19 CNS): > 50 µM; TGI (SNB-19 CNS): > 50 µM; GI50 (SNB-75 CNS): 9.44 µM; TGI (SNB-75 CNS): 22 µM; GI50 (SR leukemia): 10 µM; TGI (SR leukemia): 46.6 µM; GI50 (SW-620 colon): 15.5 µM; TGI (SW-620 colon): > 50 µM; GI50 (T-47D breast): 11.5 µM; TGI (T-47D breast): 26.7 µM; GI50 (TK-10 renal): 25.1 µM; TGI (TK-10 renal): > 50 µM; GI50 (U251 CNS): 11.1 µM; TGI (U251 CNS): 22.8 µM; GI50 (UACC-257 melanoma): 12.6 µM; TGI (UACC-257 melanoma): 36.8 µM; GI50 (UACC-62 melanoma): > 50 µM; TGI (UACC-62 melanoma): > 50 µM; GI50 (UO-31 renal): 8.75 µM; TGI (UO-31 renal): 20.2 µM
